The IC50 is the concentration that gives 50% inhibition. Low readings indicate inhibition by little substance, high ones a need for much substance.

Ten compounds from patent US20110201564A1, “SUBSTITUTED 7-SULFANYLMETHYL, 7-SULFINYLMETHYL AND 7-SULFONYLMETHYL INDOLES AND USE THEREOF” (BAYER SCHERING PHARMA AKTIENGESELLSCHAFT, priority 2008, published 2011) can be followed below.

Data set [1] addresses T1, human mineralocorticoid receptor (MR) (Homo sapiens, UniProt P08235).
T1 construct: expressed in transfected cells; host or cells: CHO K1
T1 sequence (P08235 734-984 limits assumed): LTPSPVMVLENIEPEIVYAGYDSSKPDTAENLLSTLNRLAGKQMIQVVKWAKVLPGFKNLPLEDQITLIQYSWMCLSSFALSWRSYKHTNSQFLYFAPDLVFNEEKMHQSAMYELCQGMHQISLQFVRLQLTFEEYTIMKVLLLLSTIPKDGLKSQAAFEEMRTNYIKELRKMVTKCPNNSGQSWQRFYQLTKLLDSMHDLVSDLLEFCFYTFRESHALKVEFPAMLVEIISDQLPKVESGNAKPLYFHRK
The data set is described as follows: Cellular in vitro assay, GAL4-MR chimera luciferase reporter in CHO K1 cells (inhibitory MR activity). Type of data set: cell-based. Conditions: antagonism vs aldosterone; CHO K1 GAL4-MR LBD luciferase reporter. An outline of the steps:
(§1)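 CHO K1 cells stably expressing GAL4 DNA-binding domain fused to human MR, PR or AR ligand-binding domains plus GAL4-driven firefly luciferase; compounds added 10–30 min before agonist (aldosterone, progesterone or dihydrotestosterone), luciferase read after 5–6 h; IC50 from sigmoidal concentration–response curves.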
(In a reporter assay the amount or activity of a reporter protein is the signal.)

In a further data set the target is T2, androgen receptor (AR) (Homo sapiens, UniProt P10275).
T2 construct: of the androgen receptor (AR, amino acids 667-919); expressed in transfected cells; host or cells: CHO K1
T2 sequence (P10275 668-920): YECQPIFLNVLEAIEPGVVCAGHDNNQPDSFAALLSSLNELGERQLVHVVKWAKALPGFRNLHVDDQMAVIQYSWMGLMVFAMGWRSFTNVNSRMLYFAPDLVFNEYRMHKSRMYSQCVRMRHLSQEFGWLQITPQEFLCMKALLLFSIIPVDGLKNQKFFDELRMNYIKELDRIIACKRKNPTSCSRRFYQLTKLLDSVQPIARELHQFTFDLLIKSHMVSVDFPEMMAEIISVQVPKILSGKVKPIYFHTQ
The experiment in a line: Cellular in vitro assay, GAL4-AR chimera luciferase reporter in CHO K1 cells (selectivity). Type of data set: cell-based. Conditions: antagonism vs dihydrotestosterone; CHO K1 GAL4-AR LBD luciferase reporter. The method, boiled down:
as §1

A further data set addresses T3, CYP3A4 (Homo sapiens, UniProt P08684).
T3 construct: using human liver microsomes (pool from various individuals); from tissue; host or cells: human liver microsomes (pool from various individuals)
The experiment in a line: Assay to assess irreversible CYP3A4 inhibition (mechanism-based inhibition) in human liver microsomes. The data set is classed as in vitro ADME. Conditions: CYP3A4 activity as 6β-hydroxytestosterone formation, 2-20 μM. An excerpt: 8. Assay to Assess Irreversible CYP3A4 Inhibition
Cytochrom P450 enzyme inhibition, especially irreversible enzyme inhibition, also referred to as mechanism-based inhibition (MBI), is an unwanted metabolic property of a substance which may, on concurrent administration of other medicaments, lead to considerable drug interactions. Criteria for the presence of an irreversible inhibition are a time-, concentration- and cofactor- (nicotinamide adenine dinucleotide phosphate, NADPH) dependent inhibition. To this end, the compounds of the invention are incubated in vitro with human liver microsomes, the influence on the CYP3A4 activity and the metabolic degradation of the novel active ingredient is determined, and the prototypical parameters kinact, Ki and the partition ratio r are ascertained therefrom.
The compounds of the invention are incubated with concentrations of 2-20 μM. To this end, stock solutions of the active ingredients with a concentration of 0.2-2 mM are prepared in acetonitrile and then pipetted with a 1:100 dilution into the incubation mixture. The liver microsomes are incubated in 50 mM potassium phosphate buffer (pH 7.4) with and without NADPH-generating system consisting of 1 mM NADP^+, 5 mM glucose 6-phosphate and 1 unit of glucose 6-phosphate dehydrogenase, at 37° C. After defined preincubation times of 0-50 min, aliquots are removed from these mixtures, diluted 1:25 in a new incubation, and incubated in the presence of testosterone and new NADPH-generating system again for 20 min. These incubation mixtures are stopped with acetonitrile (final concentration about 30% v/v), and the protein is removed by centrifugation at about 15 000×g. The samples stopped in this way are either analyzed directly or stored at −20° C. until analyzed.
The analysis takes place by high performance liquid chromatography with mass spectrometry detection (LC-MS). The formation of 6β-hydroxytestosterone as measure of CYP3A4 activity, and the test substance still remaining is quantified. The parameters kinact, Ki and the partition ratio r are determined therefrom so as to assess the novel active ingredients in relation to MBI.

Molecules are shown by their SMILES. Bounds are passed on as bounds.

T3 sequence (P08684 whole entry): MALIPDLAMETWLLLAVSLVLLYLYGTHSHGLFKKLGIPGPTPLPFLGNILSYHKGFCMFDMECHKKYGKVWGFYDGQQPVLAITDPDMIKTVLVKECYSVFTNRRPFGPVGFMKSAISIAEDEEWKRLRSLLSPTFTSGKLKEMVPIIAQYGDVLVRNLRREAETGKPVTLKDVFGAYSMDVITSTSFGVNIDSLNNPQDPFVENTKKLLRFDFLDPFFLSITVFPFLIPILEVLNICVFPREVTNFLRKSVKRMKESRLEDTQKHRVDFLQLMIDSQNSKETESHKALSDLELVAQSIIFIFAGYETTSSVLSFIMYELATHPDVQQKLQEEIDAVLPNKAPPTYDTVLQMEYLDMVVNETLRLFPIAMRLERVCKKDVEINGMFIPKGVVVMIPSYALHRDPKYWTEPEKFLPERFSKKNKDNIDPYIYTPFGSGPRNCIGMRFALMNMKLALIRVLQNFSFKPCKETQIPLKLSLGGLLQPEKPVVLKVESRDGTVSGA

Take `CCC(CCC#N)(c1ccc(Cl)cc1)c1c[nH]c2c(CS(C)(=O)=O)cccc12` (stereo not drawn) [Example 172, 4-(4-Chlorophenyl)-4-{7-[(methylsulfonyl)methyl]-1H-indol-3-yl}hexanonitrile]: the 50% inhibitory concentration (IC50) turned out to be 0.02 µM in data set [1] and 5.28 µM against androgen receptor (AR). Further, on CYP3A4, the Partition ratio r amounted to 120.

On to `CS(=O)(=O)Cc1cccc2c(C(c3ccc(Cl)cc3)C3CC3(F)F)c[nH]c12` (single isomer, unassigned) [Example 261-1, 3-[(4-Chlorophenyl)(2,2-difluorocyclopropyl)methyl]-7-[(methylsulfonyl)methyl]-1H-indole], for which the 50% inhibitory concentration (IC50) in data set [1] worked out at 0.033 µM; against androgen receptor (AR), 5.64 µM. Further, the Partition ratio r at CYP3A4 is on record as greater than 200.

With `CS(=O)(=O)Cc1cc(F)cc2c(C(c3ccc(C(F)(F)F)cc3F)C3CC3C#N)c[nH]c12` (single isomer, unassigned) [Example 271-1-1, 2-({5-Fluoro-7-[(methylsulfonyl)methyl]-1H-indol-3-yl}[2-fluoro-4-(trifluoro-methyl)phenyl]methyl)cyclopropanecarbonitrile], the IC50 in data set [1] worked out at 0.006 µM; against androgen receptor (AR), 0.94 µM. The Partition ratio r at CYP3A4 was greater than 200.

For `CS(=O)(=O)Cc1cccc2c(C(c3ccc(F)cc3)c3ccc(C(F)(F)F)cc3)c[nH]c12` (stereo not drawn) [Example 113, 3-{(4-Fluorophenyl) [4-(trifluoromethyl)phenyl]methyl}-7-[(methylsulfonyl)methyl]-1H-indole], the results for the IC50 (in data set [1]; at androgen receptor (AR)) were 0.13 µM and 3.22 µM, respectively. Also, the Partition ratio r at CYP3A4 is greater than 500.

`CS(=O)(=O)Cc1cccc2c(C(CCC#N)c3ccc4sccc4c3)c[nH]c12` (stereo not drawn) [Example 73, 4-(1-Benzothiophen-5-yl)-4-{7-[(methylsulfonyl)methyl]-1H-indol-3-yl}butanonitrile]: the IC50 was 0.09 µM in data set [1] and 5.22 µM against androgen receptor (AR). Further, the Partition ratio r on CYP3A4 is greater than 500.

Turning to `CCC(CCO)(c1ccc(Cl)cc1)c1c[nH]c2c(CS(C)(=O)=O)cccc12` (stereo not drawn) [Example 147, 3-(4-Chlorophenyl)-3-{7-[(methylsulfonyl)methyl]-1H-indol-3-yl}pentan-1-ol], the IC50 is 0.03 µM in data set [1] and 3.02 µM against androgen receptor (AR). Besides, at CYP3A4, the Partition ratio r is given as 90.

As for `CS(=O)(=O)Cc1cccc2c(C(CCC#N)c3ccc4c(c3)OC(F)(F)O4)c[nH]c12` (stereo not drawn) [Example 169, 4-(2,2-Difluoro-1,3-benzodioxol-5-yl)-4-{7-[(methylsulfonyl)methyl]-1H-indol-3-yl}butanonitrile], the figures for the IC50 (in data set [1]; on androgen receptor (AR)) were 0.11 µM and 2.28 µM, respectively. Further, the Partition ratio r at CYP3A4 is greater than 500.

With `CS(=O)(=O)Cc1cc(F)cc2c(C(c3ccc(Cl)cc3F)C3CC3C#N)c[nH]c12` (single isomer, unassigned) [Example 273-1-2, 2-[(4-Chloro-2-fluorophenyl){5-fluoro-7-[(methylsulfonyl)methyl]-1H-indol-3-yl}methyl]cyclopropanecarbonitrile], the IC50 in data set [1] turned out to be 0.006 µM; at androgen receptor (AR) it was 0.98 µM. On CYP3A4, the Partition ratio r is greater than 200.

As to `CS(=O)(=O)Cc1cccc2c(C3(C4CC4)CCc4cc(F)ccc43)c[nH]c12` (stereo not drawn) [Example 107, 3-(1-Cyclopropyl-5-fluoro-2,3-dihydro-1H-inden-1-yl)-7-[(methylsulfonyl)methyl]-1H-indole], the IC50 came to 0.02 µM in data set [1] and 3.33 µM against androgen receptor (AR). Also, the Partition ratio r on CYP3A4 is on record as greater than 400.

For the compound `CS(=O)(=O)Cc1cccc2c(C(CCC#N)c3ccc(Cl)cc3F)c[nH]c12` (single isomer, unassigned) [Example 59-1, 4-(4-Chloro-2-fluorophenyl)-4-{7-[(methylsulfonyl)methyl]-1H-indol-3-yl}butanonitrile], the values for the half-inhibitory concentration (IC50) (in data set [1]; against androgen receptor (AR)) were 0.08 µM and 7.76 µM, respectively. Moreover, at CYP3A4, the Partition ratio r came out at 220.
